Laboratory results published in the supplement of paper PMC8988213.
Counter-ions that a name gives are not always drawn.

Assays:
[1] = tested on: ID188 patient-derived PDAC 2D line (pre-FOLFIRINOX); experiment: normalised area under dose-response curve (viability relative to DMSO, 7 doses up to 10 µM) (fraction (AUC)); higher = less sensitive (more viability retained); settings: 72 h; top dose: 10 µM
Method: (§1)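 Patient-derived 2D PDAC cells (ID188 pre-FOLFIRINOX, passage 5+27; ID211 post-FOLFIRINOX, passage 9+11), 1,500-3,000 cells/well in 96-well plates, were treated with a 415-compound Selleck library in seven concentrations (3-fold dilution series, top 10 µM) for 72 h. Viability was read by CellTiter-Glo ATP luminescence, normalised to the DMSO control, and the area under the dose-response curve was computed with the GRmetrics R package; a lower AUC means higher sensitivity.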

[2] = tested on: ID211 patient-derived PDAC 2D line (post-FOLFIRINOX); experiment: as above; settings: 72 h; top dose: 10 µM
Method: as §1

Row | Compound | normalised area under dose-response curve [1] | normalised area under dose-response curve [2]
1 | CC(=O)Nc1cccc(-n2c(=O)n(C3CC3)c(=O)c3c(Nc4ccc(I)cc4F)n(C)c(=O)c(C)c32)c1 | 0.553 | 0.197
2 | CC(C)(C)Cn1c(N)nc2ccc(-c3[nH]c(C(C)(C)C)nc3-c3ccc(F)cc3)nc21 | 0.992 | 0.862
3 | CC(C)Nc1cc(-c2c[nH]c(C(=O)N[C@H](CO)c3cccc(Cl)c3)c2)c(Cl)cn1 | 0.881 | 0.687
4 | CCNC(=O)C#Cc1ccc2c(C(=Nc3ccc(CN(C)C)cc3)c3ccccc3)c(O)[nH]c2c1 | 0.621 | 0.264
5 | CCOc1ccn(-c2ccc(F)cc2)c(=O)c1C(=O)Nc1ccc(Oc2ccnc(N)c2Cl)c(F)c1 | 0.882 | 0.945
6 | CCc1cncnc1N1CCN(Cc2nc3ccc(C(F)(F)F)cc3[nH]2)CC1 | 0.92 | 0.936
7 | CCn1c(=O)c(-c2cc[nH]n2)cc2c(C)nc(N)nc21 | 0.814 | 0.792
8 | CN(C(=O)c1ccc(F)cc1C(F)(F)F)C1CCN(c2nnc(-c3ccnn3C)c3ccccc23)CC1 | 0.939 | 0.855
9 | CN(C)CC#Cc1ccc(OCCCc2sc(N3CCc4cccc(C(=O)Nc5nc6ccccc6s5)c4C3)nc2C(=O)O)c(F)c1 | 0.789 | 0.592
10 | CN(C)Cc1c(C(=O)NCCOc2ccc(C(=O)NO)cc2)oc2ccccc12 | 0.733 | 0.748
11 | CNC(=O)c1ccc(-c2cnc3ncc(Cc4ccc5ncccc5c4)n3n2)cc1F | 0.956 | 0.855
12 | CNS(=O)(=O)Nc1nccc(Cc2c(C)c3ccc(Oc4ncccn4)cc3oc2=O)c1F | 0.679 | 0.409
13 | COCCOc1ccc2c(c1)ncn2-c1ccc2cccc(N3CCC(N)CC3)c2n1 | 0.974 | 1.03
14 | COc1cc(OC)c(/C=C/S(=O)(=O)Cc2ccc(OC)c(NCC(=O)O)c2)c(OC)c1 | 0.746 | 0.557
15 | COc1cc2ncnc(Oc3cccc(NC(=O)Nc4cc(C(C)(C)C(F)(F)F)on4)c3)c2cc1OC | 0.948 | 0.832
16 | COc1ccccc1S(=O)(=O)Nc1ccc2c(c1)CN(C)C(=O)N2 | 0.921 | 0.753
17 | C[C@@H](C(=O)Nc1ccc(Cl)cc1)C1CCC(c2ccnc3ccc(F)cc23)CC1 (some centres undefined) | 0.882 | 0.863
18 | C[C@@H](N)[C@H]1CC[C@H](C(=O)Nc2ccncc2)CC1 | 0.941 | 0.922
19 | C[C@@H]1CCN(C(=O)CC#N)C[C@@H]1N(C)c1ncnc2[nH]ccc12 | 0.759 | 0.881

Row | Compound | normalised area under dose-response curve [1] | normalised area under dose-response curve [2]
20 | Cc1cc2c(F)c(Oc3ncnn4cc(OC[C@@H](C)O)c(C)c34)ccc2[nH]1 | 0.918 | 0.813
21 | Cc1ccc(C(=O)N(CCCN)[C@@H](c2oc3cc(Cl)ccc3c(=O)c2Cc2ccccc2)C(C)C)cc1 | 0.51 | 0.708
22 | Cc1ccc(C(=O)Nc2ccc(CN3CCN(C)CC3)c(C(F)(F)F)c2)cc1C#Cc1cnc2cccnn12 | 0.782 | 0.696
23 | Cc1ccc(S(=O)(=O)Cc2nc(-c3ccc(C(=O)NCc4cccnc4)cc3)oc2C)cc1 | 0.358 | 0.275
24 | Cc1ccc2nc(NCCN)c3ncc(C)n3c2c1 | 0.853 | 0.857
25 | Cc1cnc(NC(=O)Nc2cc(Br)c(C)cc2OC[C@@H]2CNCCO2)cn1 | 0.731 | 0.869
26 | Cc1nn(C)c(COc2ccc(N3CCN(S(=O)(=O)N(C)C)CC3)cc2)c1-c1cccc2c(CCCOc3cccc4ccccc34)c(C(=O)O)n(CCN3CCOCC3)c12 | 0.98 | 0.938
27 | Cn1cc(C2=C(c3ccc(Cl)cc3Cl)C(=O)NC2=O)c2ccccc21 | 0.813 | 0.787
28 | Cn1cnc2c(F)c(Nc3ccc(Br)cc3F)c(C(=O)NOCCO)cc21 | 0.732 | 0.457
29 | Cn1ncc(Cl)c1-c1cc(C(=O)N[C@H](CN)Cc2ccc(F)c(F)c2)oc1Cl | 0.805 | 0.789
30 | N#CC[C@H](C1CCCC1)n1cc(-c2ncnc3[nH]ccc23)cn1 | 0.945 | 0.892
31 | N#Cc1c(O)c2c(-c3ccc(-c4ccccc4O)cc3)csc2[nH]c1=O | 0.977 | 0.782
32 | NC(=O)[C@@H](CCC(F)(F)F)N(Cc1ccc(-c2ncon2)cc1F)S(=O)(=O)c1ccc(Cl)cc1 | 0.882 | 0.77
33 | NC[C@@](O)(c1ccc(Cl)cc1)c1ccc(-c2cn[nH]c2)cc1 | 1.03 | 0.981
34 | Nc1nc2c(cnn2CCc2ccccc2)c2nc(-c3ccco3)nn12 | 0.94 | 0.905
35 | Nc1nccc(Oc2ccc(NC(=O)c3c[nH]cc(-c4ccc(F)cc4)c3=O)cc2F)c1Cl | 0.939 | 0.911
36 | Nc1ncnc2n[nH]c(Nc3ccc(F)cc3)c12 | 0.947 | 0.864
37 | O=C(NNc1ccccc1)c1ccncc1 | 0.961 | 0.899
38 | O=C(Oc1cc(S(=O)(=O)c2ccccc2)ccc1[N+](=O)[O-])c1ccc(Cl)cc1 | 0.959 | 0.869

Row | Compound | normalised area under dose-response curve [1] | normalised area under dose-response curve [2]
39 | O=C1NCCCc2c1oc1ccc(O)cc21 | 0.904 | 0.878
40 | O=S(=O)(N=Cc1c(O)ccc2ccccc12)c1cccs1 | 0.913 | 0.941
41 | O=c1[nH]c(C2CCCN2)nc2c1oc1ccc(Cl)cc12 (centres undefined) | 0.916 | 0.897
42 | OCc1ccc(-c2ccc(-c3ccc(CO)s3)o2)s1 | 0.917 | 0.896
43 | Oc1c2ccccc2c2c3c(cccc13)N=N2 | 0.881 | 1.04
44 | Oc1ccc(-c2nc(-c3ccc(F)cc3)c(-c3ccncc3)[nH]2)cc1 | 0.95 | 1
45 | O=C(O)C(Cc1ccccc1[N+](=O)[O-])=NNc1nc(-c2ccc(Cl)c(Cl)c2)cs1 (mixture of isomers) [4EGI-1] | 0.549 | 0.889
46 | Cc1nnc(C(C)C)n1C1C[C@H]2CC[C@@H](C1)N2CC[C@H](NC(=O)C1CCC(F)(F)CC1)c1ccccc1 (stereo in doubt) [Maraviroc] | 1 | 0.865
47 | O=C(O)c1ccc(N2C(=O)/C(=C\c3ccc(-c4ccc([N+](=O)[O-])cc4)o3)C=C2c2ccccc2)cc1 [4E1RCat] | 0.946 | 0.895
48 | Cc1sc2c(c1C)C(c1ccc(Cl)cc1)=N[C@@H](CC(=O)OC(C)(C)C)c1nnc(C)n1-2 [(+)-JQ1] | 0.842 | 0.652
49 | COc1cc2c(cc1OCCCN1CCCC1)N=C(N)C21CCC1 [A-366] | 0.983 | 0.895
50 | COc1ccc(S(=O)(=O)Nc2cccnc2Nc2ccc(O)cc2)cc1 [ABT-751 (E7010)] | 0.794 | 0.644
51 | Cc1ccccc1C(C(=O)NC1CCCCC1)N(C(=O)Cn1ccnc1C)c1cccc(F)c1 (centres undefined) [AGI-5198] | 0.972 | 0.804
52 | O=C(Nc1cccc(C(F)(F)F)c1)Nc1cc(S(=O)(=O)NC2CC2)ccc1-c1ccsc1 [AGI-6780] | 0.906 | 0.842
53 | NC(=O)c1ncn([C@@H]2O[C@H](CO)[C@@H](O)[C@H]2O)c1N [AICAR (Acadesine)] | 0.934 | 0.887
54 | COCC1(CO)C(=O)C2CCN1CC2 (centres undefined) [APR-246 (PRIMA-1MET)] | 0.947 | 0.86
55 | O=C(NC1CCNCC1)c1n[nH]cc1NC(=O)c1c(Cl)cccc1Cl [AT7519 HCl] | 0.725 | 0.673
56 | CC(=O)N1CCC[C@H]1C(=O)N[C@@H](Cc1cnc[nH]1)C(=O)N[C@@H](CO)C(=O)N[C@@H](CS)C(=O)N[C@@H](CC(N)=O)C(N)=O [ATN-161 (Ac-PHSCN-NH2)] | 1 | 0.858
57 | COc1cc(N2CCN(C)CC2)ccc1Nc1nccc(-c2cn(C)c3cnccc23)n1 [AZ191] | 0.971 | 0.867
